{"source": "patent US6699681B2", "about": "“Endothelin converting enzymes and the amyloid β peptide” (Mayo Foundation for Medical Education and Research, priority 2000, dated 2004)", "key": {"H4 neuroglioma cells": {"system": "H4 neuroglioma cells", "test": "Extracellular Aβ after treatment of H4 cells with metalloprotease inhibitors", "format": "cell-based, human", "details": "H4 neuroglioma cells; thiorphan or captopril at concentrations greater than 1000-times the reported IC50 for the target enzymes", "protocol": "Human and guinea pig Aβ40 or Aβ42 was measured in plasma by sandwich ELISA as previously described (Suzuki et al., 1994, Science, 264:1336-1340) using the BAN-50/BA-27 or BAN-50/BC-05 antibody systems, respectively (Takeda; Japan). Hamster Aβ40- or Aβ42-derived from CHO cells was measured using the BNT-77/BA-27 or BNT-77/BC-05 antibody systems, respectively. Aβ concentration in samples was determined by comparison to synthetic Aβ40 or Aβ42 standards (Bachem, Switzerland). Data was obtained from triplicate wells.\nIn particular, the sandwich ELISA used herein was performed as follows: 96-well microtiter plates were coated overnight at 4° C. with 100 μl of a 5 μg/ml dilution of primary antibody in sodium carbonate coating buffer (SCCB; 0.1 M Na2CO3, pH 9.6). Plates were blocked overnight at 4° C. with 300 μl of BLOCKAGE Solution (PBS+1.0% BLOCKAGE (Snow Brand Milk Products, Japan), 0.05% NaN3, pH 7.4). Samples for analysis and synthetic Aβ standards (Bachem, Switzerland) were diluted in buffer EC (0.02 M NaH2PO4, 0.002 M EDTA, 0.4 M NaCl, 0.2% BSA, 0.05% CHAPS, 0.04% BLOCKAGE, 0.05% NaN3, pH 7.0) and allowed to incubate on the plates overnight at 4° C. Plates were washed twice with PBS (8 mM Na2HPO4, 1.5 mM KH2PO4, 139 mM NaCl, 2.7 mM KCl, pH 7.4) and 100 μl of secondary antibody directly coupled to HRP (EZ-LINK™ Plus Activated Peroxidase kit (contents of kit: peroxidase, 5 M sodium cyanoborohydride solution (NaBH3CN), quenching buffer (3 M ethanolamine, pH 9.0), BupH™ phosphate buffered saline, Buph™ carbonate-bicarbonate buffer), according to manufacturers directions; Pierce Chemical Co., Rockford, Ill.) was allowed to bind either 4 hrs at room temperature or overnight at 4° C. Plates were then washed twice with PBS containing 0.05% Tween 20 followed by two additional washes in PBS. Detection was performed using TMB (3,3′,5,5′-tetramethyl-benzidine) as an HRP substrate according to the manufacturer's specifications (Kirkegaard & Perry Laboratories (KPL), Gaithersburg, Md.) and the reaction stopped by the addition of 100 μl of 1N H3PO4. Plates were read at 450 nm in a SpectraMax Plus spectrophotometer (Molecular Devices; Sunnyvale, Calif.) and analyzed by SOFTmax® PRO software. Aβ40 or Aβ42 were quantitated by comparison with the values obtained for each synthetic Aβ standard from the same plate.\nCells were passaged into 6-well plates one day prior to treatment and grown to confluence. […] After treatment, the culture medium was harvested, spun at 14,000 xg, and the supernatant analyzed for Aβ40 or Aβ42 using sandwich ELISA and for secreted APP using Western blot. […] Bound antibody was detected by incubation with the appropriate HRP-linked secondary antibody (Amersham, Uppsala, Sweden) using ECL™ Western blotting reagents (Amersham) followed by exposure to X-ray film. […]"}, "Aβ in the brain": {"system": "Aβ in the brain", "details": "infusion into the brain of rats; deposition of Aβ42; previous report; cited from earlier work"}, "synthetic Aβ40 or Aβ42": {"system": "synthetic Aβ40 or Aβ42", "test": "Aβ degradation by SolECE-1, sandwich ELISA", "format": "biochemical", "details": "SolECE-1 approximately 0.2 μM; Aβ 0.01 μM; 24 hrs at 37° C., pH 6.5", "protocol": "(§1) SolECE-1 (approximately 0.2 μM) was pre-incubated for 15 min at room temperature with the ECE inhibitors PD069185 (synthesized according to published methods (Ahn et al., 1998, Biochem. Biophys. Res. Comm., 243:184-190) by the Mayo Clinic Organic Chemistry Core Facility, Jacksonville, Fla.) or phosphoramidon (150 μM), or an equal volume of vehicle (DMSO or PBS, respectively) prior to incubation with synthetic Aβ40 or Aβ42 (0.01 μM) in 50 mM MES (pH 6.5) containing 0.01% C12E10, 1 mM PMSF, 100 μM leupeptin, and 20 μM pepstatin. As a control, Aβ was incubated with Ni-NTA purified proteins from non-transfected CHO cells, or in reaction buffer alone. Following incubation for 24 hrs at 37° C., the reactions were stopped by the addition of 5 mM EDTA. Aβ concentration was then analyzed using a highly specific sandwich ELISA that captures Aβ via binding of antibody BAN-50 to the N-terminus, and detects only full-length Aβ peptides ending at residue 40 (using antibody BA-27) or 42 (using antibody BC-05). Thus, Aβ that has been further hydrolyzed will not be detected using this assay. To further analyze the degradation of Aβ by SolECE1, the enzyme was incubated with ^3H labeled Aβ40 (0.56 μM, 2×10^4 dpm) as described above and resulting peptides were separated by reverse-phase chromatography."}, "3H-Aβ40": {"system": "3H-Aβ40", "test": "Degradation of 3H labeled Aβ40 by SolECE-1, reverse-phase chromatography", "format": "biochemical", "details": "3H-Aβ40 0.56 μM", "protocol": "as §1"}}}
{"molecule": "C[C@H](CS)C(=O)N1CCC[C@H]1C(=O)O", "note": "[captopril]", "values": [{"measurement": "extracellular Aβ accumulation", "setting": "H4 neuroglioma cells", "result": "failed to result in increased extracellular Aβ"}]}
{"molecule": "O=C(O)CNC(=O)C(CS)Cc1ccccc1", "note": "(centres unmarked) [thiorphan]", "values": [{"measurement": "amount of Aβ in the brain", "setting": "Aβ in the brain", "result": "significant increase"}, {"measurement": "extracellular Aβ accumulation", "setting": "H4 neuroglioma cells", "result": "failed to result in increased extracellular Aβ"}]}
{"molecule": "SolECE-1: recombinant soluble form of ECE-1: extracellular domain of human ECE-1a with c-myc and 6×His tags, secreted by CHO cells (protein, UniProt P42892 90-770, looked up, extracellular domain c-myc and 6xHis tags, recombinant soluble form of ECE-1: extracellular domain of human ECE-1a with c-myc and 6×His tags, secreted by CHO cells) extracellular domain: QYQTRSPSVCLSEACVSVTSSILSSMDPTVDPCHDFFSYACGGWIKANPVPDGHSRWGTFSNLWEHNQAIIKHLLENSTASVSEAERKAQVYYRACMNETRIEELRAKPLMELIERLGGWNITGPWAKDNFQDTLQVVTAHYRTSPFFSVYVSADSKNSNSNVIQVDQSGLGLPSRDYYLNKTENEKVLTGYLNYMVQLGKLLGGGDEEAIRPQMQQILDFETALANITIPQEKRRDEELIYHKVTAAELQTLAPAINWLPFLNTIFYPVEINESEPIVVYDKEYLEQISTLINTTDRCLLNNYMIWNLVRKTSSFLDQRFQDADEKFMEVMYGTKKTCLPRWKFCVSDTENNLGFALGPMFVKATFAEDSKSIATEIILEIKKAFEESLSTLKWMDEETRKSAKEKADAIYNMIGYPNFIMDPKELDKVFNDYTAVPDLYFENAMRFFNFSWRVTADQLRKAPNRDQWSMTPPMVNAYYSPTKNEIVFPAGILQAPFYTRSSPKALNFGGIGVVVGHELTHAFDDQGREYDKDGNLRPWWKNSSVEAFKRQTECMVEQYSNYSVNGEPVNGRHTLGENIADNGGLKAAYRAYQNWVKKNGAEHSLPTLGLTNNQLFFLGFAQVWCSVRTPESSHEGLITDPHSPSRFRVIGSLSNSKEFSEHFRCPPGSPMNPPHKCEVW", "values": [{"measurement": "loss of synthetic Aβ40 and Aβ42 detected by sandwich ELISA", "setting": "synthetic Aβ40 or Aβ42", "result": "almost complete loss"}, {"measurement": "effect on 3H-Aβ40 by reverse-phase chromatography", "setting": "3H-Aβ40", "result": "loss of the full-length (i.e., unhydrolyzed) Aβ and the formation of at least 4 novel peaks"}]}
